Measurements: patent US20220281848A1, “PYRAZOLE-SUBSTITUTED PYRROLIDINONES AS HERBICIDES” (FMC Corporation, priority 2019, published 2022)

Tested on: plants
Assay: Test D pre-emergence, other plants of Tables D1 and D3
Type: in vivo
Conditions: pre-emergence, 100=total damage, 0=no damage
Experimental: A formulation containing 50 g/L of the test chemical was prepared by dissolving the active ingredient in a mixture of organic solvents and emulsifier, details of which are provided in the table. This formulation was then mixed with a small, variable amount of acetone to aid dissolution, before addition of a 0.2% v/v aqueous solution of an adjuvant, as the aqueous diluent, to form an aqueous spray solution which contains a predetermined concentration of the active ingredient.
This aqueous spray solution was then sprayed onto plants including maize and wheat that had been seed treated with a herbicide safener, after one day's cultivation (for pre-emergence) or after about 12 days' cultivation (for post-emergence). The plants were grown from seeds sown in standard soil, placed in a glasshouse under controlled conditions (at 24/18° C. or 20/16° C., day/night; 16 h light; 65% humidity). After spray application the plants were then grown in a glasshouse under the same conditions and watered twice daily. After 15 d for post-emergence and 20 DAA for pre-emergence the test was evaluated (100=total damage to plant; 0=no damage to plant).

COc1c(F)cccc1NC(=O)C1C(=O)N(C)CC1c1cc(C(F)(F)F)n(C)n1 (racemic) [Compound 18]
40: damage to plant, POAAN (rate 60, 20 DAA) | damage to plant, AVEFA (rate 500, 20 DAA) | damage to plant, BROTE (rate 500, 20 DAA) | damage to plant, HORVW (rate 500, 20 DAA)
70: damage to plant, POAAN (rate 250, 20 DAA) | damage to plant, LOLPE (rate 500, 20 DAA)
10: damage to plant, LOLPE (rate 60, 20 DAA) | damage to plant, VERPE (rate 60, 20 DAA) | damage to plant, BROTE (rate 130, 20 DAA) | damage to plant, GALAP (rate 130, 20 DAA) | damage to plant, STEME (rate 130, 20 DAA) | damage to plant, BRSNN (rate 250, 20 DAA) | damage to plant, SINAR (rate 500, 20 DAA) | damage to plant, STEME (rate 500, 20 DAA)
30: damage to plant, ALOMY (rate 250, 20 DAA) | damage to plant, AVEFA (rate 250, 20 DAA) | damage to plant, BROTE (rate 250, 20 DAA) | damage to plant, GALAP (rate 250, 20 DAA) | damage to plant, CHEAL (rate 500, 20 DAA)
20: damage to plant, CHEAL (rate 130, 20 DAA) | damage to plant, LOLPE (rate 130, 20 DAA) | damage to plant, VERPE (rate 130, 20 DAA) | damage to plant, CHEAL (rate 250, 20 DAA) | damage to plant, STEME (rate 250, 20 DAA) | damage to plant, BRSNN (rate 500, 20 DAA) | damage to plant, GALAP (rate 500, 20 DAA)
90: damage to plant, POAAN (rate 500, 20 DAA)
60: damage to plant, POAAN (rate 130, 20 DAA) | damage to plant, VERPE (rate 250, 20 DAA) | damage to plant, ALOMY (rate 500, 20 DAA)
0: damage to plant, ALOMY (rate 15, 20 DAA) | damage to plant, AVEFA (rate 15, 20 DAA) | damage to plant, BEAVA (rate 15, 20 DAA) | damage to plant, BROTE (rate 15, 20 DAA) | damage to plant, BRSNN (rate 15, 20 DAA) | damage to plant, CHEAL (rate 15, 20 DAA) | damage to plant, GALAP (rate 15, 20 DAA) | damage to plant, HORVW (rate 15, 20 DAA) | damage to plant, KCHSC (rate 15, 20 DAA) | damage to plant, LOLPE (rate 15, 20 DAA) | damage to plant, POAAN (rate 15, 20 DAA) | damage to plant, POLCO (rate 15, 20 DAA) | damage to plant, SINAR (rate 15, 20 DAA) | damage to plant, STEME (rate 15, 20 DAA) | damage to plant, VERPE (rate 15, 20 DAA) | damage to plant, ALOMY (rate 30, 20 DAA) | damage to plant, AVEFA (rate 30, 20 DAA) | damage to plant, BEAVA (rate 30, 20 DAA) | damage to plant, BROTE (rate 30, 20 DAA) | damage to plant, BRSNN (rate 30, 20 DAA) | damage to plant, CHEAL (rate 30, 20 DAA) | damage to plant, GALAP (rate 30, 20 DAA) | damage to plant, HORVW (rate 30, 20 DAA) | damage to plant, KCHSC (rate 30, 20 DAA) | damage to plant, LOLPE (rate 30, 20 DAA) | damage to plant, POAAN (rate 30, 20 DAA) | damage to plant, POLCO (rate 30, 20 DAA) | damage to plant, SINAR (rate 30, 20 DAA) | damage to plant, STEME (rate 30, 20 DAA) | damage to plant, VERPE (rate 30, 20 DAA) | damage to plant, ALOMY (rate 60, 20 DAA) | damage to plant, AVEFA (rate 60, 20 DAA) | damage to plant, BEAVA (rate 60, 20 DAA) | damage to plant, BROTE (rate 60, 20 DAA) | damage to plant, BRSNN (rate 60, 20 DAA) | damage to plant, CHEAL (rate 60, 20 DAA) | damage to plant, GALAP (rate 60, 20 DAA) | damage to plant, HORVW (rate 60, 20 DAA) | damage to plant, KCHSC (rate 60, 20 DAA) | damage to plant, POLCO (rate 60, 20 DAA) | damage to plant, SINAR (rate 60, 20 DAA) | damage to plant, STEME (rate 60, 20 DAA) | damage to plant, ALOMY (rate 130, 20 DAA) | damage to plant, AVEFA (rate 130, 20 DAA) | damage to plant, BEAVA (rate 130, 20 DAA) | damage to plant, BRSNN (rate 130, 20 DAA) | damage to plant, HORVW (rate 130, 20 DAA) | damage to plant, KCHSC (rate 130, 20 DAA) | damage to plant, POLCO (rate 130, 20 DAA) | damage to plant, SINAR (rate 130, 20 DAA) | damage to plant, BEAVA (rate 250, 20 DAA) | damage to plant, HORVW (rate 250, 20 DAA) | damage to plant, KCHSC (rate 250, 20 DAA) | damage to plant, POLCO (rate 250, 20 DAA) | damage to plant, SINAR (rate 250, 20 DAA) | damage to plant, BEAVA (rate 500, 20 DAA) | damage to plant, KCHSC (rate 500, 20 DAA) | damage to plant, POLCO (rate 500, 20 DAA)
50: damage to plant, LOLPE (rate 250, 20 DAA) | damage to plant, VERPE (rate 500, 20 DAA)
